Earlier results, collected in PMC11996792, “First-in-human study of CPL’116 – a dual JAK/ROCK inhibitor – in healthy subjects” (Frontiers in Pharmacology, 2025).
Like-named read-outs stand apart in the source and are kept apart here. Blank lines part the entries; values can stand above or below the compound they belong to.

SMILES: O=S(=O)(c1cccc2c(O)nccc12)N1CCCNCC1 [hydroxyfasudil]
mean half-life (ref Wolff et al., 2024): 5.5 to 5.7 h

SMILES: CC(C)NC(=O)COc1cccc(-c2nc(Nc3ccc4[nH]ncc4c3)c3ccccc3n2)c1 [belumosudil]
mean half-life (ref Schueller et al., 2024): 7.5 to 10.9 h

SMILES: CCS(=O)(=O)N1CC(CC#N)(n2cc(-c3ncnc4[nH]ccc34)cn2)C1 [baricitinib]
mean half-life (ref Shi et al., 2014): 8.5 h
mean half-life (ref Zhao et al., 2020): 5.8 to 7.4 h

The next lines start with the values.

mean half-life (ref Mohamed et al., 2016): 5.9 to 14.5 h
SMILES: CC[C@@H]1CN(C(=O)NCC(F)(F)F)C[C@@H]1c1cnc2cnc3[nH]ccc3n12 [upadacitinib]

mean half-life (extended-release formulation, ref Lamba et al., 2016): 5.9 h
mean half-life (immediate formulation, ref Lamba et al., 2016): 3.2 h
SMILES: C[C@@H]1CCN(C(=O)CC#N)C[C@@H]1N(C)c1ncnc2[nH]ccc12 [tofacitinib]
